The results in this text go back to PMC11486130, “Structure-guided discovery of novel dUTPase inhibitors with anti-Nocardia activity by computational design” (Journal of Enzyme Inhibition and Medicinal Chemistry, 2024).

One assay concerns the target T1, NsdUTPase K93A (Nocardia seriolae, UniProt A0ABF7PKI9, K93A).
T1 sequence (A0ABF7PKI9 1-166 K93A): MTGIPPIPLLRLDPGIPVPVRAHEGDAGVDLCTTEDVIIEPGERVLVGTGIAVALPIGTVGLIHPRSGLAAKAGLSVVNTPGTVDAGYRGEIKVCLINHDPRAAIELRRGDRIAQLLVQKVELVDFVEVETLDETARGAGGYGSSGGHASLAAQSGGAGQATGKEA
The assay is described as follows: Kd to K93A mutant of NsdUTPase. In kind it is binding, N. seriolae.

Another assay addresses T2, NsdUTPase A22V (Nocardia seriolae, UniProt A0ABF7PKI9, A22V).
T2 sequence (A0ABF7PKI9 1-166 A22V): T1 sequence (A0ABF7PKI9 1-166 K93A)
Kind of assay: Kd to A22V mutant of NsdUTPase. In kind it is binding, N. seriolae.

What is called Kd is a measure of binding affinity in units of concentration. High values mean a looser complex, low ones a tighter complex. Take `C=CCn1c(/C=C/c2ccccc2)nc2cc(C(F)(F)F)ccc21` [4b, (E)-1-Allyl-2-styryl-5-(trifluoromethyl)-1H-benzo[d]imidazole]: the Kd on NsdUTPase K93A came out at 50.7 µM; at NsdUTPase A22V, 5.34 µM.
The like results for `C=CCn1c(-c2ccc(Oc3ccccc3)cc2)nc2cc(C)ccc21` [12b, 1-Allyl-5-methyl-2-(4-phenoxyphenyl)-1H-benzo[d]imidazole] were, in that order, 40.9 µM and 3.16 µM.
